Source: patent US5077312A, “Biologically active lipids binding membrane receptors” (priority 1990, dated 1991)
Values joined by “and” are separate entries in the source; they are usually repeats but may differ in a detail not shown here. Identical values can stand only once.

Legend:
[1] = test system: PDBu receptor (phorboid receptor) of murine brain membranous fraction (BMF); assay: PDBu binding inhibiting activity (PBIA): inhibition of 3H-PDBu binding to murine brain membranous fraction; parameters: species or system murine (mouse, NFS strain)
Description: Pooled murine brains from approximately 2 month old mice, NFS strain, were minced with scissors, suspended in 1 mM triethanolamine-HCl, pH 7.4, and disrupted with a polytron P-10 (Brinkman). This and all subsequent steps were performed at 4° C. The homogenate was centrifuged for 10 minutes at 1700 xg; the supernate was removed and centrifuged for 60 minutes at 105,000 xg. The resulting pellet was suspended in one-fourth of the initial volume of PBS. The suspension was aliquoted into a small volume and stored at -70° C.
The binding of ^3 H-PDBu to BMF or soluble receptors was performed in duplicate in 12×75 mm disposable glass tubes (Kimax) both in the absence and presence of 20 μg/ml unlabeled PDBu; the binding mixture contained 5 ng of ^3 H-PDBu (4×10^4 cpm), 0.2% final concentration of DMSO and BMF (50 μg protein) or soluble receptors in a total volume of 0.25 ml binding buffer (BB) consisting of Dulbecco's minimum essential medium (DMEM) containing bovine serum albumin (BSA 1 mg/ml) and N,N,-bis-(2-hydroxyethyl)-2-amino-ethane sulfonic acid (BES, 5 mM), adjusted to pH 6.8. After incubation for 30 minutes at 23° C. the tubes were chilled, 0.5 ml cold 4% calf serum (Colorado Serum Co., Denver, Colo.) and 0.7 ml cold polyethylene glycol (PEG 6,000) in 1 mM Tris-HCl, pH 7.4 was added to each tube, the contents vortexed, the tubes allowed to stand for 15 min at 4° C., and centrifuged for 10 in at 1500 xg at 4° C. The supernatant solution was carefully aspirated off, the pellet suspended in 2.5 ml of cold 10% PEG in 0.1M Tris-HCl, pH 7.4, containing 0.5% SDS and 1 mM EDTA). The mixture was transferred to counting vials and 10 ml of Aquassure (NEN) was added to each vial. The vials were vigorously shaken and radioactivity determined using a Beckman beta counter. The radioactivity bound in the presence of 20 μg/ml (50-200 cpm) unlabeled PDBu was considered to be nonspecific and all data were corrected accordingly.
The loss of the ability of ^3 H-PDBu to bind to receptors in the presence of ligand was used as the measure of inhibiting activity. PDBu binding inhibition assays were performed as described above, except the test materials were added to the reaction mixture and binding measured as described above.
The PBIA of ligand was equated with that of PDBu by the use of the term ng equivalent calculated from a plot of [^3 H]PDBu bound versus the log molar concentration for several biologically active phorbol esters (2). The curve corresponding to PDBu inhibition of PDBu binding was used by reading the molar concentration corresponding to the percent of control binding of [^3 H]PDBu in the presence of ligand to obtain the units ng PDBu equivalent of ligand.

[2] = test system: arachidonic acid cascade; assay: Stimulation of arachidonic acid cascade: release of radioactivity from cells labeled with radioactive arachidonic acid; format: cell-based
From the text: (§1) The release of radioactivity into the medium from cells previously labeled with radioactive arachidonic acid was used as a measure of activation of eicosanoids pathway. […] PBIL from all sources inhibited PDBu-receptor interaction.

[3] = test system: arachidonic acid cascade in mink lung cells; assay: Activation of arachidonic acid cascade in mink lung cells; format: cell-based
From the text: as §1

[4] = test system: purified phorboid receptor (serine-protein kinase); assay: Protein kinase activity of purified phorboid receptor; format: biochemical, murine
Description: In the final volume of 0.25 ml, the reaction mixture in duplicate contained 5 μmol Tris-HCl (pH 7.4), 1 μmol MgCl2, 50 μg histone, 0.12 nmol [-^32 P] ATP (8×10^6 cpm at arrival) and an appropriate amount of purified receptor protein. The reaction was carried out for 15 min at 23° C. The phosphorylated proteins were precipitated with 5% cold TCA, using BSA (250 μg) as carrier. The mixture in the tubes was allowed to settle at 4° C. for 15-30 min. Precipitates were collected on cellulose nitrate filters (0.45 μm) and washed with 75 ml of cold 5% TCA. Filters were dried and counted in Betafluor scintillation fluid.
Purified phorboid receptor from murine brain was purified to homogeneity and shown that the purified receptor is a serine-protein kinase (Shoyab, Cell Proliferation (CSH Laboratory) (1984) 11:253-262). The effect of PBIL on this protein kinase was tested. […] At higher concentration the kinase activity was inhibited (Table 4).
The assay conditions were the same as described in the text except the indicated amount of PBIL and 25 ng of purified receptor protein (Shoyab, Cell Proliferation (CSH Laboratory) (1984) 11:253-262) were used.

[5] = concentration 0.8 (unit not given)
[6] = concentration 0.4 (unit not given)
[7] = concentration 0.2 (unit not given)

| Structure (SMILES) | Inhibition of binding of PDBu to its receptor [1, 5] | Inhibition of binding of PDBu to its receptor [1, 6] | also measured |
| --- | --- | --- | --- |
| CCCCCCCC/C=C\CCCCCCCC(=O)OCC(CO)OC(=O)CCCCCCC/C=C\CCCCCCCC (stereo not drawn) [1,2-Diolein, reference compound] | 20% |  |  |
| CCCCC/C=C\C/C=C\CCCCCCCC(=O)OCC(O)COC(=O)CCCCCCC/C=C\C/C=C\CCCCC [1,3-Dilinolein, reference compound] | 15% |  |  |
| CCCCCCCCCCCCCC(=O)OCC(O)COC(=O)CCCCCCCCCCCCC [1,3-Dimyristin, reference compound] |  | 1% |  |
| CCCCCCCC/C=C\CCCCCCCC(=O)OCC(O)COC(=O)CCCCCCC/C=C\CCCCCCCC [1,3-Diolein, reference compound] | 11% |  |  |
| CCCCCCCCCCCCCCCC(=O)OCC(O)COC(=O)CCCCCCCCCCCCCCC [1,3-Dipalmitin, reference compound] | -12% |  |  |
| CCCCC/C=C\C/C=C\C/C=C\C/C=C\CCCC(=O)OCC(O)CO (stereo not drawn) [1-Monoarachidonin, 1-monoarachidonin] | 95% | 91% | Stimulation of arachidonic acid cascade (release of radioactivity into the medium) [2]: stimulate the arachidonic acid cascade; Inhibition of / competition for PDBu binding to receptor (in words) [1]: compete with phorbol dibutyrate for its receptor; Inhibition of binding of PDBu to its receptor [1, 7]: 41% |
| CCCCC/C=C\C/C=C\CCCCCCCC(=O)OC[C@@H](O)CO [1-Monolinolein, 1-monolinolein] | 94% | 82% | Stimulation of arachidonic acid cascade (release of radioactivity into the medium) [2]: stimulate the arachidonic acid cascade; Inhibition of / competition for PDBu binding to receptor (in words) [1]: compete with phorbol dibutyrate for its receptor; Inhibition of binding of PDBu to its receptor [1, 7]: 39%; Activation of arachidonic acid cascade [3]: activated the arachidonic acid cascade in mink lung cells in a dose- and time-dependent manner |
| CC/C=C\C/C=C\C/C=C\CCCCCCCC(=O)OCC(O)CO (stereo not drawn) [1-Monolinolenin, 1-monolinolenin] | 94% | 74% | Inhibition of binding of PDBu to its receptor [1, 7]: 27% |
| CCCCCCCCCCCCCC(=O)OCC(O)CO (stereo not drawn) [1-Monomyristin, reference compound] |  | 0% |  |
| CCCCCCCC/C=C\CCCCCCCC(=O)OCC(O)CO (stereo not drawn) [1-Monoolein, 1-monoolein] | 63% | 21% |  |
| CCCCCCCCCCCCCCCC(=O)OCC(O)CO (stereo not drawn) [1-Monopalmitin, 1-monopalmitin] | -6% and -15% |  |  |
| CCCCCC/C=C\CCCCCCCC(=O)OCC(O)CO (stereo not drawn) [1-Monopalmitolein, 1-monopalmitolein] | 82% | 36% | Stimulation of arachidonic acid cascade (release of radioactivity into the medium) [2]: stimulate the arachidonic acid cascade; Inhibition of / competition for PDBu binding to receptor (in words) [1]: compete with phorbol dibutyrate for its receptor |
| OCC(O)CO [Glycerol, reference compound] |  | 0% |  |
| CCCCC/C=C\C/C=C\CCCCCCCC(=O)O [Linoleic acid-Na, reference compound] | 15% | 10% |  |
| CCCCCCCCCCCCCC(=O)O[C@@H]1[C@@H](C)[C@@]2(O)[C@@H](C=C(CO)C[C@]3(O)C(=O)C(C)=C[C@@H]23)[C@@H]2C(C)(C)[C@]12OC(C)=O [TPA, 12-0-tetradecanoylphorbol-13-acetate] |  |  | Stimulation of protein kinase activity (in words) [4]: stimulated the kinase activity |
| CCCCCCCCCCCC(=O)OCC(COC(=O)CCCCCCCCCCC)OC(=O)CCCCCCCCCCC [Trilaurin, reference compound] |  | 11% |  |
| CCCCC/C=C\C/C=C\CCCCCCCC(=O)OCC(COC(=O)CCCCCCC/C=C\C/C=C\CCCCC)OC(=O)CCCCCCC/C=C\C/C=C\CCCCC [Trilinolein, reference compound] | -1% |  |  |
| CCCCCCCCCCCCCC(=O)OCC(COC(=O)CCCCCCCCCCCCC)OC(=O)CCCCCCCCCCCCC [Trimystrin, reference compound] |  | 15% |  |
| CCCCCCCCCCCCCCCC(=O)OCC(COC(=O)CCCCCCCCCCCCCCC)OC(=O)CCCCCCCCCCCCCCC [Tripalmitin, reference compound] | -8% | -11% |  |
